The values that follow come from patent US5403940A, “Vitamin D compound, method of preparing this compound and intermediate thereof” (Duphar International Research B.V., priority 1991, dated 1995).

SMILES strings stand for the structures.

This experiment deals with T1, calf thymus intracellular vitamin D receptor (VDR) (Bos taurus, UniProt Q28037).
T1 construct: calf thymus intracellular vitamin D receptor (VDR); from tissue; host or cells: calf thymus
T1 sequence (Q28037 1-426): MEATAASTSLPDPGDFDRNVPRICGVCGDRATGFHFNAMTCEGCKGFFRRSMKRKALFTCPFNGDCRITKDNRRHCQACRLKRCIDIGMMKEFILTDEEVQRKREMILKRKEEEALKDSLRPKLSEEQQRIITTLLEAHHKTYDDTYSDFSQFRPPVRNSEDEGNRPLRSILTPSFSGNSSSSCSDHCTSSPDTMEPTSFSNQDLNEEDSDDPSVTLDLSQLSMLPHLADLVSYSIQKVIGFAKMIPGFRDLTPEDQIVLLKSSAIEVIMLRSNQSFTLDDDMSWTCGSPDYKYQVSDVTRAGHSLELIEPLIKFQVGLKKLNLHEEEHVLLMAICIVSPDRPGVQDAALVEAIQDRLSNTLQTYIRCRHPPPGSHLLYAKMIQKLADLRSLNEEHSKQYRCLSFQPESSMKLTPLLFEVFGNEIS
The experiment in a line: Affinity towards the calf thymus intracellular vitamin D receptor, replacement of 3H-calcitriol. The format is binding. An excerpt:
In this assay ^3 H-calcitriol (1α,25-dihydroxycholecalciferol), which is specifically bound to the VDR, is replaced by the tested compound.

As usually defined, the IC50 is the concentration at which inhibition is half-maximal. With `C=C1/C(=C\C=C2/CCC[C@]3(CO)[C@@H]([C@H](C)CCCC(C)(C)O)CC[C@@H]23)C[C@@H](O)C[C@@H]1O` [compound 46], the IC50 (compound dissolved in ethanol, 10^-13 to 10^-7 M, 3H-calcitriol bound to VDR, read-out: IC50 value, i.e. 50% replacement of 3H-calcitriol) is 0.25 nM. In addition, the “affinity to the VDR” value (conclusion drawn from the IC50) is reported as “high affinity to the VDR”.
